Values joined by “and” are separate entries in the source; they are usually repeats but may differ in a detail not shown here. Equal values may be shown once.

A word on the T/C: it is the result in the treated group divided by that in the control group, in per cent.

In this assay the test system is BDF1 mice, Adenocarcinoma 755 s.c., tumor weight T/C. Kind of assay: NCI In Vivo Anticancer Drug Screen. Data for tumor model Adenocarcinoma 755 (subcutaneous) in B6D2F1 (BDF1) mice. To be noted: endpoint: mean tumor weight, schedule: Q01DX011 (ip), higher = larger tumour. An outline of the steps:
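Transplantable tumor implanted; mice dosed with compound or vehicle; survival or tumor size recorded; ratio of treated to vehicle control reported.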

In the case of `O=C1Nc2ccccc2SC1c1ccccc1Cl` (stereo not given), the T/C (dose: 75.0 mg/kg/injection, vehicle: methylcellulose (MC)) is 94 % of control and 78 % of control; the T/C (dose: 150.0 mg/kg/injection, vehicle: methylcellulose (MC)) was 54 % of control and 60 % of control.

Take `Nc1ccc(C(=O)O)c(O)c1`: the T/C runs as follows: (dose: 37.88 mg/kg/injection, vehicle: carboxymethylcellulose (CMC)) 56 % of control; (dose: 43.25 mg/kg/injection, vehicle: carboxymethylcellulose (CMC)) 55 % of control; (dose: 75.75 mg/kg/injection, vehicle: carboxymethylcellulose (CMC)) 101 % of control; (dose: 86.5 mg/kg/injection, vehicle: carboxymethylcellulose (CMC)) 75 % of control; (dose: 141.17 mg/kg/injection, vehicle: carboxymethylcellulose (CMC)) 157 % of control; (dose: 151.5 mg/kg/injection, vehicle: carboxymethylcellulose (CMC)) 104 % of control. In addition, the T/C is 75 % of control (dose: 173.0 mg/kg/injection, vehicle: carboxymethylcellulose (CMC)); 71 % of control (dose: 303.0 mg/kg/injection, vehicle: carboxymethylcellulose (CMC)); 82 % of control (dose: 346.0 mg/kg/injection, vehicle: carboxymethylcellulose (CMC)).

For `[I][Hg][CH2][C@H]1CO[C@H]([CH2][Hg][I])CO1`, the T/C was 95 % of control (dose: 6.0 mg/kg/injection, vehicle: carboxymethylcellulose (CMC)); 46 % of control (dose: 12.0 mg/kg/injection, vehicle: carboxymethylcellulose (CMC)); 32 % of control and 33 % of control (dose: 25.0 mg/kg/injection, vehicle: carboxymethylcellulose (CMC)); 21 % of control (dose: 50.0 mg/kg/injection, vehicle: carboxymethylcellulose (CMC)).

For the origin of these results see PubChem BioAssay AID180 (DTP/NCI, 2004).
